Values after ≈ are worked out from the molar mass of the structure shown.
What was measured:
[1] = cited from earlier work
[2] = cited from earlier work; remark: listed apart in the source
[3] = in vivo; cited from earlier work
[4] = in vivo; cited from earlier work; remark: listed apart in the source
[5] = Emulsion droplet sizing and stability by dynamic light scattering and visual phase separation; assay type: physicochemical
Method: The emulsions were sized by dynamic light scattering prior to use. For these measurements, the emulsions were mixed by inversion of the centrifuge tube to eliminate inhomogeneity due to either flocculation or sedimentation. The emulsions were then diluted by a factor of 300 by adding 10 μL of the emulsion to 2.990 mL of 0.9% NaCl. Sizing was done by dynamic light scattering (NICOMP 380 ZLS, Particle Sizing Systems, Santa Barbara, Calif.) with a 639 nm laser at a scattering angle of 90°. Each sample was run for 15 min and all numbers are reported as Gaussian volume weighted. The emulsions were only used if the average diameter was less than 350 nm. This cutoff was established to ensure consistent physical characteristics of the emulsion and to prevent acute toxicity that can develop with increased particle size.^15 Additionally, the emulsion was filtered through a 0.45 μm nylon syringe filter. The final nano-emulsions are milky-white.
As a typical example, sevoflurane (Abbott Labs, N. Chicago, Ill., 3.4 mL) and perfluorooctyl bromide (SynQuest Laboratories, Inc., Alachua, Fla., 1.7 mL) were added to an aqueous 0.9% NaCl solution (11.9 mL) of F13M5 (298 mg, 25 mg/mL), for a total volume of 17 mL. The two-phase mixture was homogenized with a low energy mixer (Power Gen 500, Fisher Scientific, Hampton, N.H.) for 1 min at 21000 rpm at room temperature. The crude emulsion was further homogenized under high pressure (5000 psi, 1 min) using a Microfluidizer (model 110 S, Microfluidics Corp., Newton, Mass.) with the temperature maintained at 20.0° C. with a cooling bath. The product emulsions were stored in 15 mL sterile centrifuge tubes (Corning Inc., Corning, N.Y.) at 4° C. until use. All emulsions were prepared in this same manner with the requisite percentages of each component as necessary. Intralipid emulsions were prepared by adding sevoflurane to Intralipid (20%, Fresenius Kabi, Uppsala, Sweden) and then homogenizing and microfluidizing as above. […]

[6] = Solubility of perfluorotridecane in sevoflurane; assay type: physicochemical; settings: organic solvent or mixture, read-out: maximum solubility of perfluorotridecane in sevoflurane
Text: If intercalation of perfluorotridecane between the perfluorocarbon blocks of F13M5 is the reason that phase separation occurred with sevoflurane, the same effect might be expected to happen when perfluorotridecane is used as an additive to stabilize emulsions of either FC-72 and perfluorooctyl bromide. […] The difference in emulsion stability is likely due to the different solubility of perfluorotridecane in the three fluorinated compounds. […] It is likely that the limited solubility of perfluorotridecane in sevoflurane led to its preferential adsorption at the interface, rather than at the center of the droplet. The greater solubility of perfluorotridecane in the other solvents allowed it to more easily reside in the center of the droplet and act truly as a secondary oil additive.

## FCOC(C(F)(F)F)C(F)(F)F [sevoflurane]
[1]
  water solubility: 6 mM (≈ 1200 µg/mL)
[2]; 30% Intralipid, gas equilibration
  maximum solubility of sevoflurane in 30% Intralipid: 3.46 % v/v
[2]; Intralipid
  maximum amount of sevoflurane that can be stably emulsified in Intralipid: 3.5 % v/v
[2]; in volume, non-fluorinated lipids (Intralipid)
  maximum of sevoflurane emulsified in Intralipid: 3.6%

## CC(C)c1cccc(C(C)C)c1O [propofol]
[3]
  therapeutic index, previously published values: 3.1

## FC(F)(F)C(F)(F)C(F)(F)C(F)(F)C(F)(F)C(F)(F)C(F)(F)C(F)(F)Br [perfluorooctyl bromide]
[4]
  circulatory half-time / half life in the body: four
[5]
  ripening with different stabilizing additives: ripen similarly
[5]; 20% v/v primary oil, perfluorotridecane additive, 1.5% w/v F13M5
  droplet size / Ostwald ripening with perfluorotridecane as the additive: the size stabilized and Ostwald ripening appeared to be stopped

## FC1(F)C(F)(F)C(F)(F)C2(F)C(F)(F)C(F)(F)C(F)(F)C(F)(F)C2(F)C1(F)F (centres unmarked) [perfluorodecalin]
[5]
  ripening with different stabilizing additives: ripen similarly

## CCCC(C)C1(CC)C(=O)NC(=S)NC1=O (centres unmarked) [thiopental]
[3]
  therapeutic index, previously published values: 2.2

## perfluoro(methyldecalin)
[4]
  circulatory half-time / half life in the body: 264 h

## FC(F)(Cl)C(F)(F)C(F)(F)C(F)(F)C(F)(F)C(F)(F)C(F)(F)C(F)(F)Cl [perfluorodichlorooctane]
[4]
  circulatory half-time / half life in the body: 170 h

## FC(F)(F)C(F)(F)C(F)(F)C(F)(F)/C=C/C(F)(F)C(F)(F)C(F)(F)C(F)(F)F [bis-perfluorobutyl ethylene]
[4]
  circulatory half-time / half life in the body: 170 h

## FC(F)(F)C(F)(F)C(F)(F)C(F)(F)C(F)(F)C(F)(F)C(F)(F)C(F)(F)C(F)(F)C(F)(F)C(F)(F)C(F)(F)C(F)(F)F [perfluorotridecane]
[6]
  solubility: 78 mg/mL (≈ 113 mM)
